Test results published in US5981544A, “Mono-- or diketone tetracyclic derivatives and therapeutical uses thereof” (Laboratoire Innothera, priority 1995, dated 1999).
Where “and” joins values, the source holds several entries; their conditions need not be identical. Identical values can stand only once.

Legend:
[1] = system: saphenous vein of rabbits; experiment: Contractile effect on rabbit saphenous vein rings precontracted by depolarizing physiological solution (40 mM potassium); parameters: species or system rabbit (New Zealand); conditions: Oryctolagus cuniculus, precontracted at 40 mM potassium; for Emax: % of maximum contraction induced by depolarizing hyperpotassic solution, read-out: Emax (% of maximum contr.); for EC50: read-out: ED50 (the source's name)
Method: For the in vitro studies, the compounds are made soluble in a pure aqueous solution or a solution containing DMSO (dimethyl sulfoxide).
Contractile effects are measured, in vitro and under static conditions, on capacitance or resistance vascular rings of the saphenous, femoral, jugular, mesenteric, and caval veins; and on the femoral, carotid, basilar, mesenteric, and thoracic or abdominal aortic arteries, in rats (Wistar, 200 to 250 g), rabbits (New Zealand, 2 to 2.5 kg), and guinea pigs (Dunkin Hartley, 250 to 300 g).
The rings are placed in an isolated organ chamber (25 mL for capacitance vessels and 2.5 mL for resistance vessels, as per Mulvany), kept in isometric conditions by two stiff cables inserted into the interior of the vessel, avoiding any damage to the endothelium. The vessels are washed in a modified Krebbs solution (in mM: NaCl=118; KCl=4.6; ClCl2 =2.5; MgSO4 =1.2; KH2 PO4 =1.17; NcHCO3 =25; glucose=11), permanently aerated by a gaseous mixture at 95% O2 and 5% CO2, at pH=7.4 and set thermostatically at 37° C. The rings are taken to their optimal point of the tension-length ratio.
The tensions developed generate an electrical signal through a strength sensor (Wheatstone bridge). […] The pharmacological studies are carried out after some preliminary contractile stimulations standardized by a depolarizing solution (hyperpotassic solution obtained by replacing NaCl by KCl in equimolar quantities), rinses, and balancing periods in pure physiological solution. Presence of the endothelium is verified by the relaxation induced by increasing concentrations of acetylcholine after stabilization of a vascular precontraction.
The contraction forces developed by the vascular rings in response to the different compounds are studied on quiescent or electrically stimulated (5-8 Hz) vessels, using a hyperpotassic depolarizing physiological solution (KCl: 20, 40 mM), using noradrenaline (increasing concentrations), or using serotonin (increasing concentrations).
The contractions are expressed in mg of force or as a percentage of maximum contraction at depolarization by a hyperpotassic physiological solution.
The compounds of the invention and their derived salts selectively increase, in the majority of cases, the contraction of animal veins produced by noradrenaline, by electrical stimulation, or by a depolarizing hyperpotassic solution. By way of example, there is the contractile effect of different compounds on the saphenous vein of rabbits, precontracted by a depolarizing physiological solution with a potassium concentration equal to 40 mM; the maximum effect produced by each compound is expressed as the percentage of maximum contraction induced by the depolarizing hyperpotassic solutions and in ED50 values: […]

[2] = system: inflammatory hyperpermeability induced by zymosan in rats; experiment: Effects on capillary hyperpermeability induced by zymosan in rats (Evans Blue albumin extravasation); type: in vivo, rat (Wistar); conditions: rat, oral
Method: (§1) As for the in vivo studies, they are administered intravenously or intraperitoneally in the form of an aqueous solution with or without DMSO, or orally in a 1% carboxymethylcellulose suspension, administered with the use of a force-feed probe at a volume of 10 mL/kg.
Effects on induced capillary hyperpermeability
Vascular permeability is studied in vivo by measuring albumin extravasation, the quantity of which is determined by a coloring agent bonded to the albumin (Evans Blue). Hyperpermeability is induced by the intradermal injection of a histamine, bradykinin, or zymosan solution.
The technique is derived from that described by Beach and Steinetz, Journal of Pharmacology and Experimental Therapy, 131: 400-406, 1961.
The rats (Wistars, 200 to 230 g) are shaved on the abdominal wall 1 h before the start of the experiment. The product to be tested is injected i.p. or orally 1-4 h prior to sacrificing. The rats are anesthetized using a halothane mixture. They then receive an intradermal injection in the abdomen of 0.10 to 0.15 mL of an inflammatory agent (by histamine 6.7 or 10 μg) and an i.v. injection of 1 mL of Evans blue 0.5% solution in the vein of the penis. These injections are carried out 30 min prior to sacrificing.
30 min after these two injections, the rats are sacrificed by cervical dislocation.
At the locus of injection of the inflammatory agent, the skin is cut off and placed in ground-neck glass tubes containing 3 mL of fuming hydrochloric acid. Digestion of the skin is carried out by contact [with HCl] of at least 1 h in a double boiler at 37° C.; 3 mL of benzalkonium chloride at 12.8% are then added. After leaving undisturbed for 30 min, 7 mL of dichloromethane are added. The tubes are periodically agitated for 1 h. The aqueous phase is eliminated by aspiration and the organic dichloromethane phase is filtered. The optical densities are quantified by absorption spectrophotometry at a 620 nm wavelength, against a blank [control] containing only dichloromethane.
The averages for optical density of the different lots of experimental and control animals are calculated, then the variation between the data for the experimental animals and those for the control animals is calculated.
By way of illustration, the oral administration of certain compounds of the invention and their derived salts reduce inflammatory hyperpermeability induced by zymosan in rats in doses generally between 0.01 and 5 mg/kg: […]

mice = experiment: Acute oral toxicity in mice; type: in vivo; conditions: single oral administration, 1 g/kg
Description: Furthermore, the compounds of the invention and their derived salts have a very low toxicity.

[3] = system: capillary resistance in rats; experiment: Effects on capillary resistance (petechial index, negative pressure) after oral administration in rats; type: in vivo, rat (male Wistar); conditions: rat
Method: as §1
Effects on capillary resistance:
The increase in capillary resistance is detected by the change in the petechial index (negative pressure inducing the extravasation of erythrocytes), measured by a method derived from Parrot's angiosterrometer.
The study is carried out on male Wistar rats weighing an average of 200 g (aged approximately 6 weeks). The lower back area is shaved, then depilated with the use of a paste based on a by-product of thioglycolic acid and calcium hydroxide. After approximately 30 min, the skin is rinsed abundantly and dried.
On the day of the study, the rats are kept nonconstrained. A low pressure of 80 mm of mercury is applied.
The minimum low pressure at which the petechiae appear expressed in mm of mercury, the value of the base capillary resistance (before any treatment). Two measurements are carried out for each trial on different places on the back. The rats are treated orally. After a predetermined amount of time (generally 2, 4, or 6 h) after the treatment, the test is renewed on different areas of skin, until petechiae appear, yielding a new low pressure index. All measurements are carried out in the blind mode.
The variation between the means of the base capillary resistance and post-treatment capillary resistance is calculated for the experimental animals, for each treatment time and compared to the control group (excipient only) or the reference group.
By way of example, the oral administration of certain compounds of the invention and their derived salts increases the capillary resistance in rats at doses generally between 0.01 and 5 mg/kg: […]

Row | SMILES | Emax [1] [%] | EC50 [1] [nM] | Effect at 2 hours (hyperpermeability induced by zymosan) ([2]; 5 mg/kg) | Effect at 4 hours (hyperpermeability induced by zymosan) ([2]; 5 mg/kg) | mortality (mice) | toxic effect (mice) | Effect at 4 hours (capillary resistance) ([3]; 5 mg/kg) | Effect at 6 hours (capillary resistance) ([3]; 5 mg/kg) | Effect at 2 hours (hyperpermeability induced by zymosan) ([2]; 0.1 mg/kg) | Effect at 4 hours (hyperpermeability induced by zymosan) ([2]; 0.1 mg/kg) | Effect at 6 hours (capillary resistance) ([3]; 0.1 mg/kg) | Effect at 4 hours (capillary resistance) ([3]; 0.1 mg/kg)
1 | Cc1ccc2nc3c(n2c1)C(=O)C(=O)c1ccccc1-3 [Example 1, 5,6-Dihydro-5,6-dioxo-9-methyl-naphtho[1',2':4,5]-imidazo[1,2-a]pyridine] | 20 ± 4 | 170 | – | – | – | – | – | – | – | – | – | –
2 | Cc1cccn2c3c(nc12)-c1ccccc1C(=O)C3=O [Example 3, 5,6-Dihydro-5,6-dioxo-11-methyl-naphtho[1',2':4,5]-imidazo[1,2-a] pyridine] | 18 ± 4 | 200 | -13 % of control | -12 % of control | – | – | – | – | – | – | – | –
3 | O=C1C(=O)c2c(nc3ccccn23)-c2ccccc21 [Example a, 5,6-Dihydro-5,6-dioxo-naphtho[1',2':4,5]imidazo[1,2-a] pyridine] | 32 ± 7 | 306 | -1 % of control | -28 % of control | no mortality was observable | no toxic effect was observable | – | – | – | – | – | –
4 | Cc1ccn2c3c(nc2c1)-c1ccccc1C(=O)C3=O [Example 2, 5,6-Dihydro-5,6-dioxo-10-methyl-naphtho[1',2':4,5]-imidazo[1,2-a] pyridine] | 28 ± 4 | 271 | – | – | no mortality was observable | no toxic effect was observable | 11 % of control | 13 % of control | -10 % of control | -15 % of control | – | –
5 | O=C1C(=O)c2c(nc3ccc(Cl)cn23)-c2ccccc21 [Example c, 9-Chloro-5,6-dihydro-5,6-dioxo-naphtho[1',2':4,5]-imidazo[1,2-a]pyridine] | 27 ± 4 | 157 | – | – | no mortality was observable | no toxic effect was observable | 17 % of control | 10 % of control | -14 % of control | -11 % of control | 29 % of control and 17 % of control | –
6 | O=C1C(=O)c2c(nc3cc(Cl)ccn23)-c2ccccc21 [Example 12, 10-Chloro-5,6-dihydro-5,6-dioxo-naphtho[1',2':4,5]-imidazo[1,2-a] pyridine] | 13 ± 3 | 58 | – | – | – | – | – | – | – | – | – | –
7 | O=C1c2ncccc2C(=O)c2c1nc1ccccn21 [Example h, 6,11-Dihydro-6,11-dioxo-pyrido[1',2':1,2]-imidazo[5,4-g]quinoline] | 18 ± 3 | 67 | – | – | – | – | – | – | -23 % of control | -5 % of control | 13 % of control | 19 % of control
8 | O=C1C(=O)c2c(nc3ncccn23)-c2ccccc21 [Example f] | 56 ± 7 | 450 | – | – | – | – | – | – | – | – | – | –
